These are literature values, as cited in patent US6911441B2, “Prolonged release pharmaceutical composition” (Akzo Nobel N.V., priority 2002, dated 2005).

Values after ≈ are worked out from the molar mass of the structure shown.

What is called MIC90 is an inhibitory concentration at the 90% level, which refers to growth in some studies and to a panel of isolates in others.

This data set relates to Mannheimia haemolytica.

On to `CO/N=C(\C(=O)N[C@@H]1C(=O)N2C(C(=O)[O-])=C(C[n+]3cccc4c3CCCC4)CS[C@H]12)c1csc(N)n1` [Cefquinome], for which the MIC90 was 0.25 µg/mL (≈ 0.473 µM).
